The values that follow come from patent publication US20060094731A1, “New medicament” (priority 2003, published 2006).

Assay [1] deals with patients with diabetic nephropathy. As to the kind of experiment: Double-blind, randomised, placebo-controlled study of 24-hour proteinuria on top of high-dose ARB.
Procedure: The study was double-blind, randomised, and placebo-controlled. […] Patients were included if at the end of the 4-week treatment period with high-dose ARBs, their 24-hour proteinuria was >300 mg/24 h. They were randomised into 3 groups: 20 mg of compound A, 50 mg of compound A, or placebo once daily, on top of the high dose ARB. Treatment duration was 4 weeks. The primary variable was 24-hour proteinuria.
Out of the 23 randomised patients, 7 received compound A 20 mg, 8 received compound A 50 mg and 8 received placebo. The mean age (±SD) was similar for all 3 groups. The HbA1c level at entry was also similar for all 3 groups.
The subject of assay [2] is patients with type 2 diabetes and nephropathy. Particulars: literature studies (N Engl J Med 2001); correlating with reduction in onset of end-stage renal disease, no change in mortality rates; cited from earlier work.

In the case of `COc1ccccc1Oc1c(NS(=O)(=O)c2ccc(C)cn2)nc(-c2ccncc2)nc1OC` [compound A], the “decrease in 24-hour proteinuria” value in assay [1] (compound A 50 mg once daily, 4 weeks, on top of high-dose ARB, mean ± SD, 8 patients) was −1.3±1.3 g/24 h. Besides, the “mean decrease in 24-hour proteinuria” value in assay [1] (the 2 groups treated with compound A (20 mg and 50 mg), summary statement, called clinically relevant) is given as “around 1 g/24 h”.

`CCCCC1=NC2(CCCC2)C(=O)N1Cc1ccc(-c2ccccc2-c2nnn[nH]2)cc1` [irbesartan]: the effect on proteinuria result in assay [2] is given as “decrease in proteinuria”.

`CCCCc1nc(Cl)c(CO)n1Cc1ccc(-c2ccccc2-c2nn[nH]n2)cc1` [losartan]: the effect on proteinuria result in assay [2] was “decrease in proteinuria”.
